Our source for the TGI values is PubChem BioAssay (NCI).

Among the test systems are SK-OV-3 ovarian; SK-MEL-28 melanoma; CAKI-1 renal; HOP-62 NSCLC; NCI-H522 lung; SNB-75 CNS; NCI-H460 lung; TK-10 renal; OVCAR-4 ovarian; A549 NSCLC; PC-3 prostate; UACC-257 melanoma; HL-60(TB) leukemia; SF-268 CNS.
Common to all, as to test: DTP human tumour cell line panel, 48 h

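96-well plates; 48 h exposure; 5 concentrations. Endpoints by linear interpolation between flanking doses. Not reached: highest tested concentration assigned. TGI marks complete inhibition of growth.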

Consider `O=C(Nc1ccccc1)OCCN=C1c2ccccc2C(Br)C(Br)c2ccccc21` (stereo unspecified), for which the TGI in the test with SK-OV-3 ovarian was determined as 22.5 µM; in the test with SK-MEL-28 melanoma, 16.1 µM; in the test with CAKI-1 renal, 16.2 µM; with HOP-62 NSCLC, 19.9 µM; with NCI-H522 lung, 8.41 µM; with SNB-75 CNS it was 26.5 µM. Further, the TGI in the test on NCI-H460 lung is 19.5 µM; in the test with TK-10 renal, 18.5 µM; in the test on OVCAR-4 ovarian, 21.9 µM; in the test on A549 NSCLC, 25.4 µM; in the test with PC-3 prostate it was more than 31.6 µM; in the test on UACC-257 melanoma, 15.6 µM. Besides, the TGI stood at 3.85 µM with HL-60(TB) leukemia and 15.6 µM in the test on SF-268 CNS.
Regarding `C=C1C[C@@H]2CC[C@@]34CC5O[C@H]6C(O[C@H]7CC[C@H](CC(=O)O[C@@H]8[C@@H](C)[C@@H]9O[C@@H]%10C[C@]%11(C[C@@H]%12O[C@]%13(C[C@H](C)[C@@H]%14O[C@@H]%15CC(C(O)CO)O[C@@H]%15C[C@@H]%14O%13)C[C@H](C)[C@@H]%12O%11)O[C@@H]%10C[C@@H]9O[C@H]8CC8O[C@@H](CC[C@@H]1O2)C[C@@H](C)C8(O)CO)O[C@@H]7[C@@H]6O3)[C@H]5O4` (stereo partly specified), the TGI is more than 1 µM in the test with SK-OV-3 ovarian; more than 1 µM in the test with SK-MEL-28 melanoma; more than 1 µM with CAKI-1 renal; more than 1 µM in the test on HOP-62 NSCLC; 0.614 µM in the test with NCI-H522 lung; more than 1 µM in the test on SNB-75 CNS. Also, the TGI in the test on NCI-H460 lung, in the test with TK-10 renal, in the test on OVCAR-4 ovarian, in the test with A549 NSCLC, in the test with PC-3 prostate and in the test on UACC-257 melanoma was more than 1 µM each time. Further, the TGI in the test with HL-60(TB) leukemia and in the test with SF-268 CNS was more than 1 µM each time.
For `O=[N+]([O-])C(=C(Cl)Cl)C(Cl)=C(Cl)Cl`, the TGI in the test with SK-OV-3 ovarian is 9.51 µM; in the test on SK-MEL-28 melanoma it was 0.912 µM; with CAKI-1 renal it was 0.699 µM; with HOP-62 NSCLC it was 25.3 µM; in the test with NCI-H522 lung, less than 0.0106 µM; in the test with SNB-75 CNS, 3.35 µM. In addition, the TGI worked out at 5.21 µM in the test on NCI-H460 lung; 1.35 µM in the test with TK-10 renal; 0.482 µM in the test on OVCAR-4 ovarian; 19.6 µM in the test with A549 NSCLC; 4.66 µM with PC-3 prostate; 0.74 µM in the test on UACC-257 melanoma. The results for the TGI in the test with HL-60(TB) leukemia and with SF-268 CNS were 0.0573 µM and 4.92 µM, respectively.
For `C[N+](C)(CCCn1ccnc1[N+](=O)[O-])CCCn1ccnc1[N+](=O)[O-]`, the TGI in the test on SK-OV-3 ovarian, in the test on SK-MEL-28 melanoma, with CAKI-1 renal, in the test with HOP-62 NSCLC, with NCI-H522 lung and in the test with SNB-75 CNS was more than 100 µM in each case. The TGI with NCI-H460 lung, in the test with TK-10 renal, with OVCAR-4 ovarian, with A549 NSCLC, with PC-3 prostate and in the test on UACC-257 melanoma was more than 100 µM in each case. In addition, the TGI in the test with HL-60(TB) leukemia and in the test with SF-268 CNS was more than 100 µM each time.
For `CC(C)(C)c1cc(C(=O)/C=C/c2c(Cl)cccc2Cl)cc(C(C)(C)C)c1O`, the TGI with SK-OV-3 ovarian is more than 100 µM; in the test on SK-MEL-28 melanoma it was 41.3 µM; with CAKI-1 renal it was 54.9 µM; with HOP-62 NSCLC it was more than 54.8 µM; in the test on NCI-H522 lung it was 17.5 µM; with SNB-75 CNS, 34.3 µM. Moreover, the TGI with NCI-H460 lung is 24 µM; in the test on TK-10 renal, 41.5 µM; in the test with OVCAR-4 ovarian, more than 100 µM; in the test with A549 NSCLC, more than 100 µM; in the test with PC-3 prostate, more than 63.9 µM; in the test with UACC-257 melanoma, 17.6 µM. In addition, the TGI in the test with HL-60(TB) leukemia was 25.9 µM; in the test on SF-268 CNS, more than 58.9 µM.
`O=C(NC(=S)Nc1ccc(Br)cc1)c1ccc2c(c1)Sc1ccccc1S2`: the TGI in the test on SK-OV-3 ovarian was 33 µM; in the test on SK-MEL-28 melanoma, more than 100 µM; in the test with CAKI-1 renal it was 38.2 µM; in the test with HOP-62 NSCLC, 31 µM; with NCI-H522 lung, 52.6 µM; with SNB-75 CNS, 29.2 µM. The TGI with NCI-H460 lung was 32.3 µM; with TK-10 renal it was 30.9 µM; in the test on OVCAR-4 ovarian it was 33.5 µM; with A549 NSCLC, 48.6 µM; with PC-3 prostate it was more than 100 µM; in the test with UACC-257 melanoma, 54.5 µM. Besides, the TGI with HL-60(TB) leukemia worked out at 42.7 µM; in the test on SF-268 CNS, 46.4 µM.
`c1ccc(C(C2=Nc3cccc4cccc(c34)N2)c2ccccc2)cc1`: the TGI is 51.8 µM in the test with SK-OV-3 ovarian; 52 µM in the test with SK-MEL-28 melanoma; more than 100 µM in the test with CAKI-1 renal; 56.6 µM in the test on HOP-62 NSCLC; 36.3 µM in the test with NCI-H522 lung; 72.4 µM in the test with SNB-75 CNS. In addition, the TGI is 54.3 µM in the test on NCI-H460 lung; more than 100 µM in the test with TK-10 renal; more than 100 µM in the test on OVCAR-4 ovarian; more than 100 µM in the test on A549 NSCLC; 87.3 µM in the test with PC-3 prostate; 68 µM in the test with UACC-257 melanoma. The values for the TGI in the test with HL-60(TB) leukemia and in the test with SF-268 CNS were more than 100 µM and 66.1 µM, respectively.
With `COc1ccccc1CCN1CCN(CCCc2ccccc2)CC1`, the TGI in the test with SK-OV-3 ovarian, with SK-MEL-28 melanoma, in the test on CAKI-1 renal, in the test on HOP-62 NSCLC, with NCI-H522 lung and in the test on SNB-75 CNS was more than 100 µM each time. The TGI with NCI-H460 lung, with TK-10 renal, with OVCAR-4 ovarian, with A549 NSCLC, in the test on PC-3 prostate and with UACC-257 melanoma was more than 100 µM in each case. Moreover, the TGI with HL-60(TB) leukemia and in the test with SF-268 CNS was more than 100 µM throughout.
Consider `COc1cccc2c1C(=O)C1=C(C2=O)C(O)CC(C)(C)O1` (stereo unspecified), for which the TGI in the test with SK-OV-3 ovarian is more than 100 µM; with SK-MEL-28 melanoma it was more than 100 µM; in the test on CAKI-1 renal it was more than 100 µM; in the test on HOP-62 NSCLC it was more than 100 µM; in the test on NCI-H522 lung, 62.8 µM; with SNB-75 CNS, more than 100 µM. Also, the TGI in the test with NCI-H460 lung is more than 100 µM; in the test with TK-10 renal it was more than 100 µM; in the test on OVCAR-4 ovarian, 55.8 µM; in the test with A549 NSCLC it was more than 100 µM; in the test with PC-3 prostate, 68.4 µM; in the test on UACC-257 melanoma it was 50 µM. Further, the TGI with HL-60(TB) leukemia was 33.8 µM; with SF-268 CNS, more than 100 µM.
In the case of `O=[N+]([O-])c1cccc2nc3ccccc3c(NCCCCNc3c4ccccc4nc4cccc([N+](=O)[O-])c34)c12`, the TGI stood at 1.69 µM in the test with SK-OV-3 ovarian; 0.522 µM with SK-MEL-28 melanoma; 0.168 µM in the test on CAKI-1 renal; 0.372 µM in the test on HOP-62 NSCLC; 0.0639 µM with NCI-H522 lung; 1.83 µM with SNB-75 CNS. Further, the TGI with NCI-H460 lung is 0.0574 µM; in the test with TK-10 renal, 0.0304 µM; in the test on OVCAR-4 ovarian, 0.508 µM; in the test with A549 NSCLC it was more than 33.2 µM; in the test with PC-3 prostate it was more than 100 µM; with UACC-257 melanoma, 0.682 µM. For the same compound, the total growth inhibition concentration (TGI) amounted to 0.0246 µM in the test with HL-60(TB) leukemia and 0.189 µM in the test on SF-268 CNS.
Turning to `O=C1NC(N/N=C/c2ccccc2)=N/C1=C\c1ccco1`, the TGI in the test with SK-OV-3 ovarian is more than 100 µM; in the test on SK-MEL-28 melanoma, more than 100 µM; in the test on CAKI-1 renal, more than 100 µM; in the test with HOP-62 NSCLC, 50.6 µM; in the test with NCI-H522 lung, 95.2 µM; with SNB-75 CNS, more than 100 µM. Further, the TGI in the test on NCI-H460 lung was 45.5 µM; with TK-10 renal, 92.3 µM; in the test on OVCAR-4 ovarian, more than 100 µM; with A549 NSCLC it was 81.3 µM; with PC-3 prostate it was more than 100 µM; in the test with UACC-257 melanoma, more than 100 µM. Moreover, the TGI in the test on HL-60(TB) leukemia was more than 100 µM; in the test with SF-268 CNS, 75.6 µM.
`CCCCS(=O)(=O)CCC(N)P(=O)(O)O` (stereo unspecified): the total growth inhibition concentration (TGI) with SK-OV-3 ovarian, in the test on SK-MEL-28 melanoma, in the test on CAKI-1 renal, in the test with HOP-62 NSCLC, in the test on NCI-H522 lung and with SNB-75 CNS was more than 100 µM each time. Further, the TGI in the test on NCI-H460 lung, with TK-10 renal, with OVCAR-4 ovarian, with A549 NSCLC, with PC-3 prostate and in the test on UACC-257 melanoma was more than 100 µM in each case. The TGI with HL-60(TB) leukemia and with SF-268 CNS was more than 100 µM each time.
In the case of `Cn1c2ccc([N+](=O)[O-])cc2c(=O)n1Cc1ccccc1F`, the TGI was more than 100 µM in the test with SK-OV-3 ovarian; more than 100 µM in the test on SK-MEL-28 melanoma; more than 100 µM in the test on CAKI-1 renal; more than 100 µM in the test on HOP-62 NSCLC; 71.5 µM in the test on NCI-H522 lung; 70.2 µM with SNB-75 CNS. The concentration for total growth inhibition (TGI) in the test with NCI-H460 lung, in the test on TK-10 renal, in the test with OVCAR-4 ovarian, in the test on A549 NSCLC, in the test with PC-3 prostate and in the test with UACC-257 melanoma was more than 100 µM in each case. The TGI with HL-60(TB) leukemia and in the test with SF-268 CNS was more than 100 µM in each case.
Consider `C1=CC2C=CC(C=C1)P2c1ccccc1` (stereo unspecified), for which the TGI with SK-OV-3 ovarian, in the test on SK-MEL-28 melanoma, in the test on CAKI-1 renal, in the test on HOP-62 NSCLC, in the test with NCI-H522 lung and in the test on SNB-75 CNS was more than 100 µM in each case. The TGI with NCI-H460 lung, in the test on TK-10 renal, in the test on OVCAR-4 ovarian, in the test with A549 NSCLC, in the test with PC-3 prostate and with UACC-257 melanoma was more than 100 µM throughout. The TGI in the test with HL-60(TB) leukemia and in the test on SF-268 CNS was more than 100 µM in each case.

In general, TGI refers to the concentration at which net growth stops. Higher therefore signals lower sensitivity of the cells.
